≈ marks a conversion by molar mass, not a printed value.
Legend:
[1] = target: Prostaglandin E2 receptor EP2 subtype (Homo sapiens) (UniProt P43116); assay: Antagonist activity at EP2 receptor (unknown origin) expressed in rat C6 cells assessed as inhibition of PGE2-induced response; type: cell-based
[2] = target: Prostaglandin E2 receptor EP4 subtype (Homo sapiens) (UniProt P35408); assay: Antagonist activity at EP4 receptor (unknown origin) expressed in rat C6 cells assessed as inhibition of PGE2-induced response; type: cell-based
Prostaglandin E2 receptor EP4 subtype (Homo sapiens), sequence (P35408 whole entry): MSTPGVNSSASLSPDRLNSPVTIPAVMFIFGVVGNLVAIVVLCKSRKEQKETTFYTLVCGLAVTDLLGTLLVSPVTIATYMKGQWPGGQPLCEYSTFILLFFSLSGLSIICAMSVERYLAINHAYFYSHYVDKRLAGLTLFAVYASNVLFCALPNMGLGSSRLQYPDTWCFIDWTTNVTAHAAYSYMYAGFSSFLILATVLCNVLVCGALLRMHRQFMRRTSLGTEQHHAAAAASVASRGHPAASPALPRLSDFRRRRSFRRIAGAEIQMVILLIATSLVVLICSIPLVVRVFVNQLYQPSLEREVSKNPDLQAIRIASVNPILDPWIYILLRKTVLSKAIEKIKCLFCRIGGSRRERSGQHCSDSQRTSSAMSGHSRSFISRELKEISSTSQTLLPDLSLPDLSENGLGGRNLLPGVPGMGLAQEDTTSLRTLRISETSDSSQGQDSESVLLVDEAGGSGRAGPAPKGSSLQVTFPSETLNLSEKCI

[3] = organism: Homo sapiens; assay: Selectivity index, ratio of KB for EP4 receptor (unknown origin) to KB for EP2 receptor (unknown origin)
[4] = target: T1, Prostaglandin D2 receptor (Homo sapiens) (UniProt Q13258); assay: Antagonist activity at DP1 receptor (unknown origin) expressed in rat C6 cells by TR-FRET assay; type: cell-based
T1 sequence (whole entry): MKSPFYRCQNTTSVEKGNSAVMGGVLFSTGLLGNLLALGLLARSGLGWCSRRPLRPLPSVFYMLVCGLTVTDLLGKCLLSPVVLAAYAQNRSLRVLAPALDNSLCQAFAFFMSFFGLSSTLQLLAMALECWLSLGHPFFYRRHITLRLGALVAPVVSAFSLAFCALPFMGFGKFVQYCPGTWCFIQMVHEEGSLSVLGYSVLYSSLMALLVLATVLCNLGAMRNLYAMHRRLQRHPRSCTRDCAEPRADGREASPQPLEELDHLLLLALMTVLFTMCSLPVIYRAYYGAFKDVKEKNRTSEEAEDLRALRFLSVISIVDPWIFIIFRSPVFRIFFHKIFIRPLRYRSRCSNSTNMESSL

[5] = organism: Homo sapiens; assay: Selectivity index, ratio of KB for DP1 receptor (unknown origin) to KB for EP2 receptor (unknown origin)
[6] = target: Prostacyclin receptor (Homo sapiens) (UniProt P43119); assay: Antagonist activity at IP receptor (unknown origin) expressed in rat C6 cells by TR-FRET assay; type: cell-based
Prostacyclin receptor (Homo sapiens), sequence (P43119 whole entry): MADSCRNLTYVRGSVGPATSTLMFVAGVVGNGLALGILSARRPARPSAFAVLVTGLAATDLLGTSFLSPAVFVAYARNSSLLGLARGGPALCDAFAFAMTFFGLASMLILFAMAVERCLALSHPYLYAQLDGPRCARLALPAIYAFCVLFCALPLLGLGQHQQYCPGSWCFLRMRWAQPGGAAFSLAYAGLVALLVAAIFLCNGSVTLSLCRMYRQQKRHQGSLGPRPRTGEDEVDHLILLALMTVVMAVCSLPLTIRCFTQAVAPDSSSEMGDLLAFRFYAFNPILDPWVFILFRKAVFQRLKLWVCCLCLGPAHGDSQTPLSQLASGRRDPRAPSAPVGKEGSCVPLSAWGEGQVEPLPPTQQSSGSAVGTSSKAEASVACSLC

[7] = organism: Homo sapiens; assay: Selectivity index, ratio of KB for IP receptor (unknown origin) to KB for EP2 receptor (unknown origin)
[8] = system: C6; assay: Cytotoxicity against rat C6 cells; type: cell-based; details: c6
[9] = system: EP2 receptor; assay: Therapeutic index, ratio of CC50 for rat C6 cells to KB for EP2 receptor (unknown origin); type: cell-based; details: read-out: TI
[10] = Metabolic stability of the compound in human liver microsomes assessed as compound remaining at 10 uM after 15 mins; type: ADME; details: read-out: Stability
[11] = Metabolic stability of the compound in human liver microsomes assessed as compound remaining at 10 uM after 30 mins; type: ADME; details: read-out: Stability
[12] = Metabolic stability of the compound in human liver microsomes assessed as compound remaining at 10 uM after 60 mins; type: ADME; details: read-out: Stability
[13] = Metabolic stability of the compound in mouse liver microsomes assessed as compound remaining at 10 uM after 15 mins; type: ADME; details: read-out: Stability
[14] = Metabolic stability of the compound in mouse liver microsomes assessed as compound remaining at 10 uM after 30 mins; type: ADME; details: read-out: Stability
[15] = Metabolic stability of the compound in mouse liver microsomes assessed as compound remaining at 10 uM after 60 mins; type: ADME; details: read-out: Stability
[16] = Aqueous solubility of the compound by nephelometry method; type: physicochemical; details: buffer

Prostaglandin E2 receptor EP2 subtype (Homo sapiens), sequence (P43116 whole entry): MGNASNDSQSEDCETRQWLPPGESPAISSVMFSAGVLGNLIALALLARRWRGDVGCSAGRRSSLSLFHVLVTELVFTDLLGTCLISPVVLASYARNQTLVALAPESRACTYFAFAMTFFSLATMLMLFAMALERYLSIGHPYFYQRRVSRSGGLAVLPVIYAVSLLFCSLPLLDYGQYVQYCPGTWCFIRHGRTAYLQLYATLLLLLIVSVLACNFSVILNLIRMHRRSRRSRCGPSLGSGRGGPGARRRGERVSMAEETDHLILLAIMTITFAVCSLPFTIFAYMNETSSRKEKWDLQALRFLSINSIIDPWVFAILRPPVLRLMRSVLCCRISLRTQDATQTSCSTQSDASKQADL

## Cc1cc2ccccc2n1CCNC(=O)c1ccc(N2CCC(O)CC2)cc1
[1]
  Kb: 26.8 nM
[2]
  Kb: 70300 nM
[3]
  Ratio: 2620
[4]
  Kb: 4620 nM
[5]
  Ratio: 172
[6]
  Kb: 18100 nM
[7]
  Ratio: 675
[8]
  CC50: 163000 nM
[9]
  selectivity ratio: 6080
[10]
  remaining at […], 10 µM: 66%
[11]
  remaining at 0.5 h, 10 µM: 49%
[12]
  remaining at 1 h, 10 µM: 31%
[13]
  remaining at […], 10 µM: 35%
[14]
  remaining at 0.5 h, 10 µM: 12%
[15]
  remaining at 1 h, 10 µM: 2%
[16]
  solubility kinetic: 160 µM (≈ 60.4 µg/mL)

## Cc1[nH]c2ccccc2c1CCNC(=O)c1ccc(N(C)C)cc1
[1]
  Kb: 10.8 nM
[2]
  Kb: 16400 nM
[4]
  Kb: 3610 nM
[6]
  Kb: 63100 nM
[8]
  CC50: 320000 nM
[10]
  remaining at […], 10 µM: 34%
[11]
  remaining at 0.5 h, 10 µM: 17%
[12]
  remaining at 1 h, 10 µM: 4%
[13]
  remaining at […], 10 µM: < 1%
[14]
  remaining at 0.5 h, 10 µM: 0%
[15]
  remaining at 1 h, 10 µM: 0%
[16]
  solubility kinetic: < 25 µM

## Cc1cc2ccccc2n1CCNC(=O)c1ccc(N2CCN(C)CC2)c(F)c1
[1]
  Kb: 45 nM
[2]
  Kb: 4760 nM
[3]
  Ratio: 106
[4]
  Kb: 980 nM
[5]
  Ratio: 22
[6]
  Kb: 64000 nM
[7]
  Ratio: 1420
[8]
  CC50: 300000 nM
[9]
  selectivity ratio: 6660

## Cc1cc2ccccc2n1CCNC(=O)c1ccc(N2CCCCC2)cc1
[1]
  Kb: 9.4 nM
[2]
  Kb: 30200 nM
[3]
  Ratio: 3210
[4]
  Kb: 2570 nM
[5]
  Ratio: 273
[6]
  Kb: 3400 nM
[7]
  Ratio: 360
[8]
  CC50: 315000 nM
[9]
  selectivity ratio: 33500
[10]
  remaining at […], 10 µM: 67%
[11]
  remaining at 0.5 h, 10 µM: 42%
[12]
  remaining at 1 h, 10 µM: 21%
[13]
  remaining at […], 10 µM: 24%
[14]
  remaining at 0.5 h, 10 µM: 18%
[15]
  remaining at 1 h, 10 µM: 7%
[16]
  solubility kinetic: < 25 µM

## Cc1cc2ccccc2n1CCNC(=O)c1ccc(N2CCCCCC2)cc1
[1]
  Kb: 22.6 nM
[2]
  Kb: 23600 nM
[3]
  Ratio: 1040
[4]
  Kb: 7720 nM
[5]
  Ratio: 342
[6]
  Kb: 8500 nM
[7]
  Ratio: 375
[8]
  CC50: 327000 nM
[9]
  selectivity ratio: 14500
[10]
  remaining at […], 10 µM: 66%
[11]
  remaining at 0.5 h, 10 µM: 64%
[12]
  remaining at 1 h, 10 µM: 28%
[13]
  remaining at […], 10 µM: 49%
[14]
  remaining at 0.5 h, 10 µM: 37%
[15]
  remaining at 1 h, 10 µM: 12%
[16]
  solubility kinetic: < 25 µM

## Cc1cc2ccccc2n1CCNC(=O)c1ccc(N(C)C)cc1
[1]
  Kb: 9.8 nM
[2]
  Kb: 51000 nM
[4]
  Kb: 6430 nM
[6]
  Kb: 4700 nM
[8]
  CC50: 310000 nM
[10]
  remaining at […], 10 µM: 27%
[11]
  remaining at 0.5 h, 10 µM: 7%
[12]
  remaining at 1 h, 10 µM: < 1%
[13]
  remaining at […], 10 µM: < 1%
[14]
  remaining at 0.5 h, 10 µM: < 1%
[15]
  remaining at 1 h, 10 µM: < 1%
[16]
  solubility kinetic: < 25 µM

## Cc1cc2ccccc2n1CCNC(=O)c1ccc2c(c1)n(C)c(=O)n2C
[1]
  Kb: 20.9 nM
[2]
  Kb: 36100 nM
[3]
  Ratio: 1730
[4]
  Kb: 6290 nM
[5]
  Ratio: 300
[6]
  Kb: 25200 nM
[7]
  Ratio: 1200
[8]
  CC50: 154000 nM
[9]
  selectivity ratio: 7370

## Cc1cc2ccccc2n1CCNC(=O)c1ccc(-n2cnnn2)cc1
[1]
  Kb: 42.2 nM
[10]
  remaining at […], 10 µM: 75%
[11]
  remaining at 0.5 h, 10 µM: 54%
[12]
  remaining at 1 h, 10 µM: 26%
[13]
  remaining at […], 10 µM: 50%
[14]
  remaining at 0.5 h, 10 µM: 26%
[15]
  remaining at 1 h, 10 µM: 7.5%
[16]
  solubility kinetic: < 25 µM

## Cc1cc2ccccc2n1CCNC(=O)c1ccc(N2CCN(C)CC2)cc1
[1]
  Kb: 64 nM

## CCNc1ccc(C(=O)NCCn2c(C)cc3ccccc32)cc1
[1]
  Kb: 15.5 nM

## CCN(CC)c1ccc(C(=O)NCCn2c(C)cc3ccccc32)cc1F
[1]
  Kb: 4.6 nM

## Cc1cc2ccccc2n1CCNC(=O)c1ccc(CN2CCN(C)CC2)cc1
[1]
  Kb: > 1000 nM

## CC(=O)Nc1ccc(C(=O)NCCn2c(C)cc3ccccc32)cc1
[1]
  Kb: 97 nM

## Cc1cc2ccccc2n1CCNC(=O)c1ccc(NC(=O)c2ccccc2F)cc1
[1]
  Kb: 51 nM

## Cc1cc2ccccc2n1CCNC(=O)C1CCC(c2ncccn2)CC1 (stereo not drawn)
[1]
  Kb: 380 nM

## Cc1cc2ccccc2n1CCNC(=O)c1ccc(-n2nn[nH]c2=S)cc1
[1]
  Kb: 32.2 nM

## Cc1cc2cc(F)ccc2n1CCNC(=O)c1ccc(N2CCN(C)CC2)c(F)c1
[1]
  Kb: 62.2 nM

## Cc1cc2ccccc2n1CCNC(=O)c1nc2cc(F)ccc2[nH]1
[1]
  Kb: 130 nM

## Cc1cc2ccccc2n1CCNC(=O)c1ccc2[nH]c(=S)[nH]c(=O)c2c1
[1]
  Kb: 84.1 nM

## Cc1cc2ccccc2n1CCNC(=O)c1ccc(N2CCCN(C)CC2)cc1
[1]
  Kb: 148 nM

## Cc1[nH]c2ccccc2c1CCNC(=O)c1ccc(N2CCOCC2)cc1
[2]
  Kb: 75600 nM
[4]
  Kb: 7790 nM
[6]
  Kb: 85000 nM
[8]
  CC50: 311000 nM
[9]
  selectivity ratio: 10900
[10]
  remaining at […], 10 µM: 75%
[11]
  remaining at 0.5 h, 10 µM: 58%
[12]
  remaining at 1 h, 10 µM: 40%
[13]
  remaining at […], 10 µM: 37%
[14]
  remaining at 0.5 h, 10 µM: 10%
[15]
  remaining at 1 h, 10 µM: 0.5%
[16]
  solubility kinetic: < 25 µM

## Cc1cc2ccccc2n1CCNC(=O)c1ccc(N2CCC(C)CC2)cc1
[1]
  Kb: 30.3 nM

## Cc1cc2ccccc2n1CCNC(=O)c1ccc(C(=O)N(C)C)cc1
[1]
  Kb: > 1000 nM

## Cc1cc2ccccc2n1CCNC(=O)c1ccc(C(=O)OC(C)(C)C)cc1
[1]
  Kb: 100 nM

## CC(=O)N1CCN(c2ccc(C(=O)NCCn3c(C)cc4ccccc43)cc2)CC1
[1]
  Kb: 50.2 nM

## CC(=O)Nc1ccc(C(=O)NCCc2c(C)[nH]c3ccccc23)cc1
[1]
  Kb: 138 nM

## Cc1cc2ccccc2n1CCNC(=O)c1ccc(C2CCCN(C(=O)OC(C)(C)C)C2)cc1 (stereo not drawn)
[1]
  Kb: 95 nM

## O=C(NCCn1c(C(F)(F)F)cc2ccccc21)c1ccc(N2CCOCC2)cc1
[1]
  Kb: 120 nM

## CCN(CC)C(=O)c1ccc(C(=O)NCCn2c(C)cc3ccccc32)cc1
[1]
  Kb: 800 nM

## CCNc1ncc(C(=O)NCCn2c(C)cc3ccccc32)cn1
[1]
  Kb: 57.8 nM

## Cc1cc2ccccc2n1CCNC(=O)c1cnc2ccc(F)cc2c1O
[1]
  Kb: 175 nM

## COc1ccc(C(=O)NCCn2c(C)cc3ccccc32)cc1OC
[1]
  Kb: 22.3 nM

## COc1ccc(C(=O)NCCn2c(C)cc3ccccc32)cc1F
[1]
  Kb: 86.8 nM

## Cc1cc2ccccc2n1CCNC(=O)c1cnc(N2CCOCC2)nc1
[1]
  Kb: 76.5 nM

## CCN(CC)c1ccc(C(=O)NCCCn2c(C)cc3ccccc32)cc1
[1]
  Kb: > 1000 nM

## Cc1cc2ccccc2n1CCNC(=O)c1cnc(Nc2ccccc2)nc1
[1]
  Kb: 1.6 nM
[10]
  remaining at […], 10 µM: 88%
[11]
  remaining at 0.5 h, 10 µM: 67%
[12]
  remaining at 1 h, 10 µM: 50%
[13]
  remaining at […], 10 µM: 71%
[14]
  remaining at 0.5 h, 10 µM: 59%
[15]
  remaining at 1 h, 10 µM: 35%
[16]
  solubility kinetic: < 25 µM

## Cc1cc2ccccc2n1CCNC(=O)c1ccc(N)cc1
[1]
  Kb: 210 nM

## Cc1cc2ccccc2n1CCNC(=O)c1ccc(O)cc1
[1]
  Kb: > 1000 nM

## Cc1cc2ccccc2n1CCNC(=O)c1ccc(C#N)cc1
[1]
  Kb: 140 nM

## CCN(CC)c1ccc(C(=O)NCCn2c(C)nc3ccccc32)cc1
[1]
  Kb: 190 nM
